From patent US4431665A, “Acylated laidlomycin derivatives” (priority 1980, dated 1984)
Like-named read-outs stand apart in the source and are kept apart here.

Tests used:
male, Swiss-Webster mice = assay: Acute oral toxicity (mortality, LD50) in mice; format: in vivo, mouse (Swiss-Webster); conditions: sesame oil, 21 days
Protocol: (§1) Five groups of male, Swiss-Webster mice (Simonsen), each mouse weighing about 25 grams, were dosed orally with 0.25 ml of a solution of laidlomycin butyrate in sesame oil. A control group of six mice received only sesame oil. The mice were observed daily for mortality for 21 days. From this information the LD50 as calculated to be more than 200 mg/kg.

[1] = Acute oral toxicity (mortality, LD50) in mice; format: in vivo, mouse (Swiss-Webster); conditions: mouse, in vivo, male Swiss-Webster mice, 21 days
Protocol: as §1

[2] = test system: rumen microorganisms (mixed microbial population of rumen contents); assay: Enhancement of intraruminal propionic acid production, batch culture fermentation of rumen contents; format: cell-based, bovine (rumen-fistulated); conditions: for % Propionic Acid: 9 h, 39° C.
Protocol: Enhancement of intraruminal propionic acid production is determined using a batch culture fermentation system. Rumen contents from a rumen-fistulated bovine are mixed with an equal amount of buffer which contains mineral, energy and nitrogen sources required for continued growth and metabolism of the mixed microbial population. Aliquots of this inoculum then are transferred to incubation vessels containing appropriate amounts of sodium laidlomycin (Na L.) (see Example 1A), and L. butyrate (L.C4) (prepared according to the procedure of Example 1A). After 9 hours of incubation at 39° C., concentrations of individual volatile fatty acids in each incubation vessel are determined by gas-liquid chromatography. The net production of each individual volatile fatty acid (acetic [AA], propionic [PA] and butyric [BA]) is calculated as the difference between the concentration after incubation and the concentration before incubation. The molar percentage of propionic acid produced is calculated from the following equation: [formula]
The comparative activities of sodium laidlomycin (Na L.) and the laidlomycin butyrate upon propionic acid and lactic acid production are set forth in Tables 1 and 2 where the concentration is in micrograms per ml (μg/ml).
(§2) The procedure of Example 2 was followed to compare laidlomycin (L.), sodium L. (Na L.), L.-propionate (L.C3), L. butyrate (L.C4), L. isobutyrate (L. isoC4), L. pentanoate (L.C5) and L. hexanoate (L.C6).
(§3) The procedure of Example 2 was followed to compare the activities of L. heptanoate (L. C7), L. octanoate (L. C8), L. decanoate (L. C10) and L. dodecanoate (L. C12) in increasing propionic acid production and inhibiting lactic acid production.
(§4) The procedure of Example 2 was followed to compare the activities of laidlomycin (L.) acetate (L. C2), L. pentanoate (L. C5), L. stearate (L. C18), L. cyclobutylcarboxylate, L. cyclopentylcarboxylate, L. cyclohexylcarboxylate and L. cyclopropylcarboxylate.

[3] = test system: rumen contents (lactic acid accumulation); assay: Inhibition of lactic acid accumulation, second batch culture fermentation of rumen contents with glucose; format: cell-based, bovine (rumen fistulated); conditions: for activity at 1.25 µg/mL / activity at 5 µg/mL / activity at 20 µg/mL / activity at 0.31 µg/mL / activity at 2.5 µg/mL / activity at 10 µg/mL / activity at 0.62 µg/mL: Bos taurus; for activity at 1.25 µg/mL / activity at 5 µg/mL / activity at 20 µg/mL / activity at 0.31 µg/mL / activity at 2.5 µg/mL / activity at 10 µg/mL / activity at 0.62 µg/mL / Lactic Acid Accumulation (μ mol/ml) / Accumulation of Lactic Acid - % of Control: 6 h, 39° C.; for activity at 0.62 µg/mL: .62 μg/ml; for Lactic Acid Accumulation (μ mol/ml): Table 8, 0 μg/ml: 40.47; for Accumulation of Lactic Acid - % of Control: Table 4, 360 min
Protocol: Inhibition of lactic acid accumulation is determined using a second batch culture fermentation system. Rumen contents from a rumen fistulated bovine are mixed with an equal amount of buffer which contains a 150 mM concentration of glucose. Following 6 hours of incubation at 39° C., lactic acid produced in the fermentation is analyzed by a specific enzymatic assay. The concentration of lactic acid in the fermentation broth is quantified by the increase in absorbance of light at […] when nicotinamide adenine dinucleotide is reduced by lactic acid with the aid of lactate dehydrogenase. […]
as §2, §3, §4

Gram-positive bacteria = conditions: in words; J. Antibiotics 1974, 1976; cited from earlier work
ruminants = conditions: in words; U.S. Pat. No. 3,794,732; cited from earlier work
[4] = Table 1, 1.25 μg/ml, 0 μg/ml: 35.4
[5] = Table 1, 2.5 μg/ml, 0 μg/ml: 35.4
[6] = Table 1, 5 μg/ml, 0 μg/ml: 35.4
[7] = Table 1, 10 μg/ml, 0 μg/ml: 35.4
[8] = Table 1, .31 μg/ml, 0 μg/ml: 35.4
[9] = Table 1, .62 μg/ml, 0 μg/ml: 35.4
[10] = Table 3, 1.25 μg/ml, 0 μg/ml: 28.5
[11] = Table 3, 5 μg/ml, 0 μg/ml: 28.5
[12] = Table 3, 20 μg/ml, 0 μg/ml: 28.5
[13] = Table 3, .31 μg/ml, 0 μg/ml: 28.5
[14] = in words, compared with laidlomycin or its sodium salt
[15] = read-out: Accumulation of Lactic Acid - % of Control, Table 4, 1.25 μg/ml
[16] = read-out: Accumulation of Lactic Acid - % of Control, Table 4, 5 μg/ml
[17] = read-out: Accumulation of Lactic Acid - % of Control, Table 4, 20 μg/ml
[18] = read-out: Accumulation of Lactic Acid - % of Control, Table 4, .31 μg/ml
[19] = read-out: Lactic Acid Accumulation (% of Control), Table 2, 1.25 μg/ml
[20] = read-out: Lactic Acid Accumulation (% of Control), Table 2, 2.5 μg/ml
[21] = read-out: Lactic Acid Accumulation (% of Control), Table 2, 5 μg/ml
[22] = read-out: Lactic Acid Accumulation (% of Control), Table 2, 10 μg/ml
[23] = read-out: Lactic Acid Accumulation (% of Control), Table 2, .31 μg/ml
[24] = read-out: Lactic Acid Accumulation (% of Control), Table 2

Compound	% Propionic Acid [2, 4] [%]	% Propionic Acid [2, 5] [%]	% Propionic Acid [2, 6] [%]	% Propionic Acid [2, 7] [%]	% Propionic Acid [2, 8] [%]	% Propionic Acid [2, 9] [%]	% Propionic Acid [2, 10] [%]	% Propionic Acid [2, 11] [%]	% Propionic Acid [2, 12] [%]	% Propionic Acid [2, 13] [%]	activity at 1.25 µg/mL [3, 15] [%]	activity at 5 µg/mL [3, 16] [%]	activity at 20 µg/mL [3, 17] [%]	activity at 0.31 µg/mL [3, 18] [%]	activity at 1.25 µg/mL [3, 19] [%]	activity at 2.5 µg/mL [3, 20] [%]	activity at 5 µg/mL [3, 21] [%]	activity at 10 µg/mL [3, 22] [%]	activity at 0.31 µg/mL [3, 23] [%]	activity at 0.62 µg/mL [3, 24] [%]	other results
CCCC(=O)OCC1(O)OC(C2CC(C)C(C3(C)CCC(C4(C)CCC5(CC(O)C(C)C(C(C)C(OC(=O)CC)C(C)C(=O)O)O5)O4)O3)O2)C(C)CC1C (centres unmarked) [L. C4, monobutyrate of laidlomycin]	46.1	52.2	49.3	53.9	43.6	46.4	39.9	43.7	46.9	35.5	13	15	19	38	8	11	13	13	71	30	No. Deaths/No. Mice (male, Swiss-Webster mice; 12.5 mg/kg): 0/6; No. Deaths/No. Mice (male, Swiss-Webster mice; 25 mg/kg): 0/6; No. Deaths/No. Mice (male, Swiss-Webster mice; 50 mg/kg): 0/6; No. Deaths/No. Mice (male, Swiss-Webster mice; 100 mg/kg): 0/6; No. Deaths/No. Mice (male, Swiss-Webster mice; 200 mg/kg): 0/6; LD50 at 504 h [1]: > 200 mg/kg; enhancement of propionic acid production (molar percentage of propionate) [2, 14]: surprisingly increased potency; inhibition of lactic acid production/accumulation [3, 14]: surprisingly increased potency
CCCCCCCCCCCCCCCCCC(=O)OCC1(O)OC(C2CC(C)C(C3(C)CCC(C4(C)CCC5(CC(O)C(C)C(C(C)C(OC(=O)CC)C(C)C(=O)O)O5)O4)O3)O2)C(C)CC1C (centres unmarked) [L. C18, laidlomycin stearate]	–	–	–	–	–	–	–	–	–	–	–	–	–	–	–	–	–	–	–	–	% Propionic Acid ([2]; Table 7, 1.25 μg/ml, 0 μg/ml: 36.1): 40.0%; % Propionic Acid ([2]; Table 7, 2.5 μg/ml, 0 μg/ml: 36.1): 41.6%; % Propionic Acid ([2]; Table 7, 5 μg/ml, 0 μg/ml: 36.1): 44.6%; % Propionic Acid ([2]; Table 7, 10 μg/ml, 0 μg/ml: 36.1): 45.5%; % Propionic Acid ([2]; Table 7, 20 μg/ml, 0 μg/ml: 36.1): 45.8%; % Propionic Acid ([2]; Table 7, .313 μg/ml, 0 μg/ml: 36.1): 37.1%; % Propionic Acid ([2]; Table 7, .625 μg/ml, 0 μg/ml: 36.1): 37.6%; Lactic Acid Accumulation (μ mol/ml) ([3]; 1.25 μg/ml): 48.87 μ mol/ml; Lactic Acid Accumulation (μ mol/ml) ([3]; 2.5 μg/ml): 52.51 μ mol/ml; Lactic Acid Accumulation (μ mol/ml) ([3]; 5 μg/ml): 46.20 μ mol/ml; Lactic Acid Accumulation (μ mol/ml) ([3]; 10 μg/ml): 37.83 μ mol/ml; Lactic Acid Accumulation (μ mol/ml) ([3]; 20 μg/ml): 29.93 μ mol/ml; Lactic Acid Accumulation (μ mol/ml) ([3]; .313 μg/ml): 50.29 μ mol/ml; Lactic Acid Accumulation (μ mol/ml) ([3]; .625 μg/ml): 52.57 μ mol/ml
CCC(=O)OC(C(C)C(=O)O)C(C)C1OC2(CCC(C)(C3CCC(C)(C4OC(C5OC(O)(COC(=O)C(C)C)C(C)CC5C)CC4C)O3)O2)CC(O)C1C (centres unmarked) [L. iso C4, laidlomycin isobutyrate]	–	–	–	–	–	–	39.6	43.9	47.5	34.3	12	13	16	37	–	–	–	–	–	–	–
CCC(=O)OC(C(C)C(=O)O)C(C)C1OC2(CCC(C)(C3CCC(C)(C4OC(C5OC(O)(CO)C(C)CC5C)CC4C)O3)O2)CC(O)C1C (centres unmarked) [L., laidlomycin]	–	–	–	–	–	–	36.0	39.8	43.2	32.1	83	–	–	121	–	–	–	–	–	–	growth inhibition of Gram-positive bacteria (Gram-positive bacteria): inhibits the growth of some Gram-positive bacteria; Accumulation of Lactic Acid - % of Control ([3]; 5 μg/ml): 20 % of Control; Accumulation of Lactic Acid - % of Control ([3]; 20 μg/ml): 16 % of Control
CCC(=O)OC(C(C)C(=O)O)C(C)C1OC2(CCC(C)(C3CCC(C)(C4OC(C5OC(O)(CO)C(C)CC5C)CC4C)O3)O2)CC(O)C1C (centres unmarked) [Na L., sodium laidlomycin, reference compound]	41.3	43.2	44.4	45.4	40.2	40.8	34.1	34.6	36.8	32.0	–	–	–	–	125	112	93	67	135	132	Accumulation of Lactic Acid - % of Control ([3]; 1.25 μg/ml): 94 % of Control; Accumulation of Lactic Acid - % of Control ([3]; 5 μg/ml): 57 % of Control; Accumulation of Lactic Acid - % of Control ([3]; 20 μg/ml): 40 % of Control; Accumulation of Lactic Acid - % of Control ([3]; .31 μg/ml): 114 % of Control
monensin	–	–	–	–	–	–	–	–	–	–	–	–	–	–	–	–	–	–	–	–	increasing feed utilization in ruminants (ruminants): useful in increasing feed utilization in ruminants
